Values quoted from earlier work as cited in patent US20060205727A1, “Combination therapy for endothelial dysfunction, angina and diabetes” (priority 2005, published 2006).

Assays:
[1] = in vivo
[2] = tested on: plasma C-reactive protein; conditions: acute myocardial infarction, streptokinase plus intravenous trimetazidine infusion

In the case of `COc1ccccc1OCC(O)CN1CCN(CC(=O)Nc2c(C)cccc2C)CC1` (centres unmarked) [Ranolazine, ranolazine], the QT interval prolongation [1] is listed as “causes QT interval prolongation”.
For `COc1ccc(CN2CCNCC2)c(OC)c1OC` [trimetazidine], the “levels of plasma C-reactive protein” value [2] is listed as “reduce the levels of plasma C-reactive protein”.
